Experimental data as given in PubChem BioAssay AID1645848.
Values after ≈ are worked out from the molar mass of the structure shown.

details: buffer; pH 7.4; 6.0 h; 150.0 µM

SMILES | solubility kinetic [µg/mL]
O=C(c1cccs1)c1nonc1C(=O)c1cccs1 | < 1
O=C1CCCC2=C1C(c1[nH]ncc1Cl)N=C(Nc1nc3cccc(Cl)c3o1)N2 (stereo not given) | < 1
Cn1nc(-c2ccccc2F)c2cc(C(=O)Nc3cc(F)ccc3F)sc21 | < 1
Cc1ccccc1S(=O)(=O)N1CCc2cc(-c3nc(NC(=O)Cc4ccc5c(c4)OCO5)sc3C)ccc21 | < 1
Cl.N=c1c2c(n(Cc3ccccc3)c3c1CCC3)CCC2 | > 39
O=C(Nc1ccc(Cl)c(S(=O)(=O)N2CCOCC2)c1)c1ccc(S(=O)(=O)N2CCOCC2)cc1 | < 1
O=C(NCc1cccc(C(F)(F)F)c1)c1ccc(CN2CCCCC2)cc1 | 46.6 (≈ 124 µM)
Cc1ccc(CN2CCOC[C@H]2c2ncc(-c3cccc(F)c3)[nH]2)cc1 | 10.4 (≈ 29.7 µM)
Cc1ccnc(NC(=S)N2CCCC(Nc3cccc(C(F)(F)F)c3)C2)c1 (stereo not given) | 11.6 (≈ 29.5 µM)
C/C=C1/CN2CC[C@@]34c5ccccc5N(C)[C@@H]3[C@@H]2C[C@@H]1[C@H]4C(=O)OC | > 33
COc1ccc(-n2nc(C3CCCN(C(=O)Cc4ccccn4)C3)[nH]c2=O)cc1 (stereo not given) | > 58
Cc1cc(-c2nnc3n2CCCCC3)c(C)n1-c1ccncc1 | 36 (≈ 117 µM)
CCn1c(=NC(=O)c2ccc(S(=O)(=O)N3CCCCC3)cc2)sc2cccc(OC)c21 | < 1
COCCNC(=O)[C@H]1C[C@H](Oc2ccccc2)CN1Cc1ccc2[nH]ccc2c1 | 17.1 (≈ 43.5 µM)
Nc1cc(CN2C(=O)c3ccccc3C2=O)cc(Cl)c1O | 20.8 (≈ 68.8 µM)
O=C(NC1CC1)c1nc(-c2cccnc2)c2cnccn12 | 31.6 (≈ 113 µM)
CCN1CCN(CC(=O)Nc2ccc(-c3cccc4c(=O)cc(N5CCOCC5)oc34)c3sc4ccccc4c23)CC1 | 63.6 (≈ 109 µM)
N#Cc1cccc(-c2csc(N3CCC(C(N)=O)CC3)n2)c1 | 10.7 (≈ 34.3 µM)
COc1ccc(NC(=O)c2[nH]c(C)c(C(C)=O)c2C)cc1 | 35.3 (≈ 123 µM)
Cc1cc(-c2nnc3n2CCCCC3)c(C)n1-c1ccc([N+](=O)[O-])cc1 | > 52
O=C(Nc1nc(-c2ccccn2)cs1)c1cccc(S(=O)(=O)N2CCOCC2)c1 | 24.3 (≈ 56.4 µM)
COc1ccc(-c2ccc3ncc(Nc4ccc(C(N)=O)cc4)n3n2)cc1OC | 27.4 (≈ 70.4 µM)

SMILES | solubility kinetic [µg/mL]
Cc1cc(SCc2sc(-c3ccc(C(F)(F)F)c(F)c3)nc2C)ccc1OCC(=O)O | > 70
CN1CC=C(c2nc(Nc3ccc(F)c(F)c3)c3ccccc3n2)CC1 | 33.8 (≈ 96 µM)
CCN(c1cc(C#CCN2CCOCC2)cc(C(=O)NCc2c(C)cc(C)[nH]c2=O)c1C)C1CCC(N(C)CCOC)CC1 (stereo not given) | > 89
O=C(COC(=O)CCC(=O)c1cccs1)NCc1ccco1 | > 47
O=C1CCc2cc(S(=O)(=O)Nc3ccc(F)c(Cl)c3)ccc2N1 | > 52
CNC(=O)Cn1cc(-c2ccc3c(c2)C(F)CC32NC(=O)N(CC(=O)N(Cc3ccc(F)cc3)[C@@H](C)C(F)(F)F)C2=O)cn1 (stereo not given in full) | 22 (≈ 35.5 µM)
CCc1ccc(NC(=O)c2[nH]c(C)c(C(C)=O)c2C)cc1[S+](=O)([O-])N1CCCCCC1 | 1.19 (≈ 2.67 µM)
Cc1ccnc(NC(=S)N2CCN(c3cc(F)cc(Cl)c3)CC2)c1 | < 1
Cc1cc(C)c(C(=O)Nc2cccc([S+](=O)([O-])N3CCCC3)c2)[nH]1 | 11.5 (≈ 33.1 µM)
CC(C)(O)CNc1nc(Nc2ccnc(C(F)(F)F)c2)nc(-c2cccc(C(F)(F)F)n2)n1 | 11 (≈ 23.2 µM)
CCCSc1nc(N[C@@H]2C[C@H]2c2ccc(F)c(F)c2)c2nnn([C@@H]3C[C@H](OCCO)[C@@H](O)[C@H]3O)c2n1 | < 1
CCCc1ccc(C(=O)NC(=O)c2ccccc2O)cc1 | 1.6 (≈ 5.65 µM)
O=C(Nc1ccc([N+](=O)[O-])cc1Cl)c1cc(Cl)ccc1O | 1.14 (≈ 3.47 µM)
CCNC(=O)c1noc(-c2cc(C(C)C)c(O)cc2O)c1-c1ccc(CN2CCOCC2)cc1 | > 69
CC(=O)N1CCC2(CCCN(c3ccc(-c4ccccc4)cc3)C2)CC1 | < 1
O=C1Nc2ccccc2/C1=C\c1ccc(O)c(F)c1 | 9.29 (≈ 36.4 µM)
COc1ccc(S(=O)(=O)N2CCCCCC2)cc1NC(=O)Cc1n[nH]c(=O)c2ccccc12 | 8.46 (≈ 18 µM)
CCCCc1ccc(NC(=O)c2ccc3c(c2)N(S(C)(=O)=O)CC3)cc1 | 1.08 (≈ 2.91 µM)
COc1ccc(C2c3c(oc4ccc(C)cc4c3=O)C(=O)N2CCCN2CCOCC2)cc1OC (stereo not given) | > 71
O=C(Nc1cccc(C(F)(F)F)c1)c1ccccc1NC(=O)C1CCCCC1 | < 1
CC1=C(C(=O)NC2CCCC2)C(c2nn(C)cc2Cl)N=C(Nc2nc3ccccc3o2)N1 (stereo not given) | 10 (≈ 22 µM)

The remaining lines, values ahead:

solubility kinetic [µg/mL] | SMILES
< 1 | FC(F)(F)c1cccc(Sc2nc(-c3ccccc3)nnc2C(F)(F)F)c1
< 1 | O=S(=O)(Nc1ccc(-c2ccccc2)cc1)c1ccc(NCc2ccc(Br)cc2O)cc1
26.4 (≈ 69.1 µM) | CN(C(=O)COC(=O)c1csc(NCc2ccccc2)n1)c1ccccc1
1.11 (≈ 2.84 µM) | Cn1c(C(=O)NCCc2ccccn2)nc2nc(-c3ccccc3)c(Cl)cc21
< 1 | Fc1cc(Nc2nc(-c3ccncc3)nc3ccccc23)ccc1OCC(F)(F)F
< 1 | O=C(Nc1ccc(Cl)cc1Cl)c1cnc2ccccc2n1
15.6 (≈ 31.3 µM) | O=C1CN(C(=O)CCC(=O)N2CCc3c(nc4cc(-c5ccccc5)[nH]n4c3=O)C2)c2ccccc2N1
< 1 | Cc1ccc(-c2nnc(Nc3ccc(Br)cc3)c3ccccc23)cc1S(=O)(=O)N1CCN(C)CC1
< 1 | Cc1ccc(NS(=O)(=O)c2cccc(C(=O)Nc3nc(-c4ccccc4)cs3)c2)cc1
< 1 | CC(C)c1ccc(OCc2nc3c(n2Cc2ccccc2)C(=O)N(CC2CC2)CCN3)cc1
2.79 (≈ 7.46 µM) | NC1(c2ccc(NC(=O)c3ccnc(-c4cc(C(=O)O)ccn4)c3)cc2)CC1
> 56 | COc1ccc(-n2nc(C3CCCN(C(=O)c4ccccc4)C3)[nH]c2=O)cc1 (stereo not given)
< 1 | CC(C)(C#N)c1ccc(N2C(=O)OCc3cnc4ccc(-c5cnc6ccccc6c5)cc4c32)cc1
> 54 | Cc1ccc(S(=O)(=O)Nc2cnccc2C(=O)Nc2ccccc2)cc1
6.87 (≈ 23.6 µM) | CCc1ccc(C2N=C(N)Nc3nc4ccccc4n32)cc1 (stereo not given)
< 1 | CC1=C(C(=O)Nc2ccccc2C)C(c2ccccc2Br)N=C(Nc2nc3ccccc3o2)N1 (stereo not given)
7.3 (≈ 28.4 µM) | Clc1ccccc1-c1nccc(-n2ccnc2)n1
< 1 | Clc1ccccc1Nc1nc(-c2ccncc2)nc2ccccc12
> 67 | Cc1ccc(S(=O)(=O)Nc2cnccc2C(=O)Nc2nc(-c3ccncc3)cs2)cc1
> 63 | COc1cc(Nc2nc(-c3ccncc3)nc3ccccc23)ccc1N1CCN(C)CC1
< 1 | CCCCCNc1oc(-c2cccc3ccccc23)nc1C#N
34.6 (≈ 75.8 µM) | CC1=C(C(=O)Nc2nncs2)C(c2[nH]ncc2Cl)N=C(Nc2nc3ccccc3o2)N1 (stereo not given)
7.47 (≈ 20.5 µM) | Cc1c(-c2cccc(NC(=O)c3ccc(F)c(F)c3)c2)nc2ncccn12
34.2 (≈ 107 µM) | Cc1cccc2nc(-c3ccccn3)c(Nc3ccc(F)cc3)n12
0.167 (≈ 0.356 µM) | Cc1ccc(S(=O)(=O)Nc2cnccc2C(=O)Nc2nc(-c3cccc(F)c3)cs2)cc1
< 1 | Cn1cc(-c2nc(Nc3ccc(F)c(F)c3)c3ccccc3n2)cn1
> 75 | CCN(CCO)CCCOc1ccc2c(Nc3cc(CC(=O)Nc4cccc(F)c4)[nH]n3)ncnc2c1
